Measured values taken from patent US20240041796A1, “ANTI-INFLAMMATORY COMPOSITION COMPRISING N-BENZYL-N-METHYLDECAN-1-AMINE OR A DERIVATIVE THEREOF AS AN ACTIVE INGREDIENT” (PUSAN NATIONAL UNIVERSITY INDUSTRY-UNIVERSITY COOPERATION …, priority 2022, published 2024).

Tests used:
[1] = system: male SD rats; assay: DNBS-induced colitis model, enema administration; format: in vivo, rat; settings: for inflammatory response caused by DNBS / length of the large intestine (colon) / ulcer scab: 500 μL of 200 μg/mL through the anus for 5 days; for inflammatory response caused by DNBS: FIG. 3A-B; for production amount of CNIC-3 chemokine: ELISA of colon supernatant, FIG. 3E; for body weight lost due to the DNBS treatment: FIG. 3C; for length of the large intestine (colon) / ulcer scab: vs DNBS+PBS group; for macrophage peroxidase (MPO) activity in colon: vs DNBS+PBS-treated rat, FIG. 3D
Method: For experimental colitis, male SD rats (250 to 260 g) were fasted one day before developing colitis. A water bottle was prepared so that only water could be consumed by the rats. Then, after anesthesia of the rats, a rubber cannula is inserted into the anus, and a solution in which 48.0 mg DNBS was dissolved in 0.4 mL of 50% alcohol was injected thereto through the cannula. This process was repeated for 3 days.
From the 4th day since the DNBS was inserted, anesthesia of the rats was carried out, and then BMDA (FMJ-G0) and a derivative thereof (DMMA, FMJ-G4) were diluted with PBS, and then 500 μL of the diluted substance was injected at a concentration of 200 μg/mL thereto through the anus. This process was repeated for 5 days. In a control group, DMSO was diluted in PBS at the same concentration and then was injected in the same way for 5 days. Thereafter, on day 6, the rats were suffocated, and the large intestine was removed therefrom to evaluate a level of colitis according to a known method.
Moreover, a portion of the large intestine was removed, placed in a cell lysis buffer (20 mM Tris-HCl [pH 7.5], 150 mM NaCl, 1 mM EDTA, 1% Triton X-100, 0.5% SDS), and subjected to ultrasonic treatment. Centrifugation was carried out to collect only the supernatant. We quantified the protein, and performed immunoblotting thereon.
Further, a portion of the supernatant obtained after the centrifugation as prepared for immunoblotting was used to measure the amount of the chemokine CINC-3 (Cytokine-induced neutrophil chemoattractant) based on ELISA. Moreover, in order to measure the level of activity of macrophages infiltrated into the distal colon, a titer of MPO (Myeloperoxidase) was measured. The distal colon was pulverized in a supersonic pulverizing device, was centrifuged to obtain the supernatant. Then, hydrogen peroxide was added to the supernatant for decomposition. Change in absorbance was measured at 460 nm for 1 minute.

[2] = system: DBA/J1 male mice; assay: Rheumatoid arthritis model induced by type 2 bovine collagen, oral administration; format: in vivo, mouse; settings: for inflammation and synovitis of joint tissues: H&E stained joint sections, FIG. 5A-B; for expression of HO-1 in the joints / expression of Nrf2 in the joints: immunoblotting, FIG. 6B; for length of the spleen / weight of the spleen / swelling of the feet / weight loss caused by rheumatism induced by collagen: oral 20 mg/body weight Kg for 21 days; for length of the spleen / weight of the spleen: vs control, FIG. 4C-D; for swelling of the feet: vs soybean oil control, FIG. 4A-B; for weight loss caused by rheumatism induced by collagen: FIG. 4B
Method: Rheumatoid arthritis was induced in 7-week-old DBA/J1 male mice. We thoroughly mixed the type 2 collagen at a concentration of 2 mg/mL with CFA (Complete Freund's Adjuvant) in the mixing ratio 1:1. We injected 0.1 mL (100 μg) of the mixture intradermally to a position away 2 cm from a base of the tail. After 2 weeks, we mixed the type 2 collagen with IFA instead of CFA in the mixing ratio 1:1. We administered the mixture subcutaneously to the base of the tail in the same amount and volume as those in the first injection. After 3 days, we grouped the mice into 4 groups and performed second administration thereto.
In one example, BMDA (FMJ-G0) and a derivative thereof (DMMA, FMJ-G4) at a concentration of 2.5 mg/mL were orally administered to male mice in a volume of 200 μL (20 mg/body weight Kg) for 21 days. In a control group, soybean oil was orally administered thereto.
During the experiment, the insteps of the forelimbs and hindlimbs were measured with a caliper three times a week, and the mice were suffocated, and joint areas were prepared for immunohistochemical staining and immunoblotting. Moreover, the spleen was removed therefrom and a size thereof was measured. Further, blood was drawn through the hepatic portal vein to prepare serum. A specific method was as follows. • 1) Paraffin sections were prepared as the joints including the ankles of the forelimbs. At this time, decalcification is performed first, followed by sectioning the same at a thickness of 4 μm, and H&E staining. • 2) The cell lysis solution was added thereto, and then we crushed the tissue with a sonicator, which was prepared for immunoblotting. • 3) Trisol solution was added to the joint tissue, the tissue was pulverized in a sonicator, and centrifuged, and the Trisol solution was used to precipitate proteins and DNA for entire RNA separation, and the entire RNA was collected from the supernatant obtained via the centrifugation. c-DNA was synthesized using oligo-dT primer and reverse transcriptase, and then, quantitative qRT-PCR and immunoblotting were performed thereon.

[3] = system: human THP-1 monocytic cell line; assay: ELISA of inflammatory cytokines in supernatant of LPS-treated THP-1 cells; format: cell-based; settings: LPS 1 μg/ml, FIG. 2C
Method: Each of BMDA (FMJ-G0) or DMMA (FMJ-G4) was added to a culture medium at concentrations of […], and 1 μM in a 6-well plate. The human THP-1 monocytic cell line (5×10^5 cells/well) was cultured therein for 3 hours. Each well was treated with lipopolysaccharide at a concentration of 1 μg/ml. After 1 hour, centrifugation was performed to obtain a supernatant which was used in an ELISA for inflammatory cytokine evaluation. Cell lysate was added to the collected THP-1 cells for immunoblotting.

CCCCCCCCCCN(C)Cc1ccccc1 [BMDA, N-benzyl-N-methyldecan-1-amine]
inflammatory response caused by DNBS [1]: significantly reduced
production amount of CNIC-3 chemokine [1]: low
body weight lost due to the DNBS treatment [1]: did not restore
length of the large intestine (colon) [1]: no significant difference
ulcer scab [1]: much smaller
macrophage peroxidase (MPO) activity in colon [1]: much lower
inflammation and synovitis of joint tissues [2]: significantly reduced
expression of HO-1 in the joints [2]: increased
expression of Nrf2 in the joints [2]: increased
length of the spleen [2]: reduced
weight of the spleen [2]: reduced
swelling of the feet [2]: much smaller
weight loss caused by rheumatism induced by collagen [2]: did not restore
production of IL-1β [3]: inhibited
production of TNF-α [3]: inhibited

CCCCCCCCCCN(C)Cc1ccc(OC)cc1 [DMMA, Decyl-(4-methoxy-benzyl)-methyl-amine]
inflammatory response caused by DNBS [1]: significantly reduced
production amount of CNIC-3 chemokine [1]: low
body weight lost due to the DNBS treatment [1]: did not restore
length of the large intestine (colon) [1]: larger than that of the DNBS+PBS-treated rat group
ulcer scab [1]: reduced
macrophage peroxidase (MPO) activity in colon [1]: much lower
inflammation and synovitis of joint tissues [2]: significantly reduced
expression of HO-1 in the joints [2]: increased
expression of Nrf2 in the joints [2]: increased
length of the spleen [2]: reduced
weight of the spleen [2]: reduced
swelling of the feet [2]: much smaller
weight loss caused by rheumatism induced by collagen [2]: did not restore
production of IL-1β [3]: inhibited
production of TNF-α [3]: inhibited
